From publication PMC7531004, “Discovery of gramicidin A analogues with altered activities by multidimensional screening of a one-bead-one-compound library” (Nature Communications, 2020)
Where a SMILES comes first, the peptide text is derived from it. [ ]: non-standard residue; d: D form. The star is where a group is joined. NHCH2CH2OH = OCCN*; For = O=C*

Key:
[1] = H+/Na+ transport assay of bead-derived peptides (one-point); assay type: biochemical; parameters: key: relative activity; mean of two control wells = 1.00; conditions: bead-derived peptide solution, EYPC/EYPG LUVs;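 also: relative to parent gramicidin A activity set to 1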
How it was run: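 Pyranine (1.0 mM)-loaded LUVs containing egg yolk phosphatidylglycerol were prepared by film hydration, sonication and extrusion, then mixed with diluted bead-derived peptide in 96-well format and vortexed 30 min at room temperature. Fluorescence was normalized between untreated LUVs (0%) and Triton X-100 lysis (100%).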

[2] = system: Streptococcus pyogenes SSI-9; assay: Antibacterial activity assay of bead-derived peptides (three concentrations); assay type: cell-based; parameters: key: +++: inhibition by the 640-fold diluted peptide solution; ++: inhibition by the 160-fold diluted solution; +: inhibition by the 40-fold diluted solution; -: no inhibition; conditions: S. pyogenes, bead-derived peptide solution, three concentrations
How it was run: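 Growth inhibition scored visually as precipitated bacteria after 37 °C, 18 h incubation. Streptococcus pyogenes SSI-9 inoculum of 2 × 10^5 CFU in Ca2+/Mg2+-adjusted Mueller Hinton broth plus 5% laked horse blood; peptides tested at three levels: stock, 4-fold and 16-fold DMSO dilutions.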

[3] = cell viability/%
How it was run: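 Peptide stocks diluted 250× in growth medium; P388 cells 1 × 10^4 cells/mL final; 37 °C, 5% CO2, 92 h. WST-1 + 1-methoxy PMS, 4 h, A415. Output: % viability.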

Structure (SMILES) | H+/Na+ transport activity normalized against the value of 1 (1.00) [1] | antibacterial activity [2] | viability [3] [%]
CC(C)C[C@@H](NC(=O)[C@H](Cc1c[nH]c2ccccc12)NC(=O)[C@H](NC(=O)[C@H](Cc1c[nH]c2ccccc12)NC(=O)[C@H](NC(=O)[C@H](Cc1c[nH]c2ccccc12)NC(=O)[C@H](NC(=O)[C@@H](NC(=O)[C@H](NC(=O)[C@H](C)NC(=O)[C@H](NC(=O)[C@H](C)NC(=O)CNC(=O)[C@@H](NC=O)C(C)C)C(C)C)C(C)C)C(C)C)[C@H](C)O)C(C)C)C(C)C)C(=O)N[C@@H](Cc1c[nH]c2ccccc12)C(=O)NCCO [compound 5542] (For-VGA[dV]A[dV]V[dT]W[dV]W[dV]W[dL]W-NHCH2CH2OH) | 1.17 | - | 100
CC(C)C[C@@H](NC(=O)[C@H](C)NC(=O)CNC(=O)[C@@H](NC=O)C(C)C)C(=O)N[C@@H](C)C(=O)N[C@@H](C(=O)N[C@H](C(=O)N[C@@H](C(=O)N[C@@H](Cc1c[nH]c2ccccc12)C(=O)N[C@H](CC(C)C)C(=O)N[C@@H](Cc1c[nH]c2ccccc12)C(=O)N[C@@H](C(=O)N[C@@H](Cc1c[nH]c2ccccc12)C(=O)N[C@H](CC(C)C)C(=O)N[C@@H](Cc1c[nH]c2ccccc12)C(=O)NCCO)C(C)C)C(C)C)C(C)C)[C@H](C)O [compound 5555] (For-VGA[dL]A[dT]V[dV]W[dL]W[dV]W[dL]W-NHCH2CH2OH) | 1.22 | - | 100
CC(C)C[C@@H](NC(=O)[C@H](C)NC(=O)CNC(=O)[C@@H](NC=O)C(C)C)C(=O)N[C@@H](C)C(=O)N[C@H](CC(C)C)C(=O)N[C@H](C(=O)N[C@H](CC(C)C)C(=O)N[C@@H](Cc1c[nH]c2ccccc12)C(=O)N[C@@H](C(=O)N[C@@H](Cc1c[nH]c2ccccc12)C(=O)N[C@H](CC(C)C)C(=O)N[C@@H](Cc1c[nH]c2ccccc12)C(=O)N[C@@H](C(=O)N[C@@H](Cc1c[nH]c2ccccc12)C(=O)NCCO)C(C)C)[C@H](C)O)C(C)C [compound 5561] (For-VGA[dL]A[dL]V[dL]W[dT]W[dL]W[dV]W-NHCH2CH2OH) | 1.05 | - | 100
CC(C)C[C@@H](NC(=O)[C@H](Cc1c[nH]c2ccccc12)NC(=O)[C@@H](CC(C)C)NC(=O)[C@@H](NC(=O)[C@H](NC(=O)[C@H](C)NC(=O)[C@H](NC(=O)[C@H](C)NC(=O)CNC(=O)[C@@H](NC=O)C(C)C)[C@H](C)O)C(C)C)C(C)C)C(=O)N[C@@H](Cc1c[nH]c2ccccc12)C(=O)N[C@@H](C(=O)N[C@@H](Cc1c[nH]c2ccccc12)C(=O)N[C@@H](C(=O)N[C@@H](Cc1c[nH]c2ccccc12)C(=O)NCCO)C(C)C)C(C)C [compound 5563] (For-VGA[dT]A[dV]V[dL]W[dL]W[dV]W[dV]W-NHCH2CH2OH) | 1.08 | - | 100
CC(C)C[C@@H](NC(=O)[C@H](C)NC(=O)[C@H](NC(=O)[C@H](C)NC(=O)CNC(=O)[C@@H](NC=O)C(C)C)C(C)C)C(=O)N[C@H](C(=O)N[C@H](CC(C)C)C(=O)N[C@@H](Cc1c[nH]c2ccccc12)C(=O)N[C@@H](C(=O)N[C@@H](Cc1c[nH]c2ccccc12)C(=O)N[C@@H](C(=O)N[C@@H](Cc1c[nH]c2ccccc12)C(=O)N[C@H](CC(C)C)C(=O)N[C@@H](Cc1c[nH]c2ccccc12)C(=O)NCCO)C(C)C)[C@H](C)O)C(C)C [compound 5572] (For-VGA[dV]A[dL]V[dL]W[dT]W[dV]W[dL]W-NHCH2CH2OH) | 1.24 | + | 100
CC(C)C[C@@H](NC(=O)[C@H](C)NC(=O)CNC(=O)[C@@H](NC=O)C(C)C)C(=O)N[C@@H](C)C(=O)N[C@@H](C(=O)N[C@H](C(=O)N[C@@H](C(=O)N[C@@H](Cc1c[nH]c2ccccc12)C(=O)N[C@H](CC(C)C)C(=O)N[C@@H](Cc1c[nH]c2ccccc12)C(=O)N[C@@H](C(=O)N[C@@H](Cc1c[nH]c2ccccc12)C(=O)N[C@@H](C(=O)N[C@@H](Cc1c[nH]c2ccccc12)C(=O)NCCO)C(C)C)C(C)C)C(C)C)C(C)C)C(C)C [compound 5587] (For-VGA[dL]A[dV]V[dV]W[dL]W[dV]W[dV]W-NHCH2CH2OH) | 1.23 | ++ | 85.3
CC(C)C[C@@H](NC(=O)[C@H](C)NC(=O)[C@H](NC(=O)[C@H](C)NC(=O)CNC(=O)[C@@H](NC=O)C(C)C)[C@H](C)O)C(=O)N[C@H](C(=O)N[C@H](CC(C)C)C(=O)N[C@@H](Cc1c[nH]c2ccccc12)C(=O)N[C@H](CC(C)C)C(=O)N[C@@H](Cc1c[nH]c2ccccc12)C(=O)N[C@H](CC(C)C)C(=O)N[C@@H](Cc1c[nH]c2ccccc12)C(=O)N[C@H](CC(C)C)C(=O)N[C@@H](Cc1c[nH]c2ccccc12)C(=O)NCCO)C(C)C [compound 5618] (For-VGA[dT]A[dL]V[dL]W[dL]W[dL]W[dL]W-NHCH2CH2OH) | 1.13 | - | 85.1
CC(C)C[C@@H](NC(=O)[C@H](C)NC(=O)CNC(=O)[C@@H](NC=O)C(C)C)C(=O)N[C@@H](C)C(=O)N[C@@H](C(=O)N[C@H](C(=O)N[C@@H](C(=O)N[C@@H](Cc1c[nH]c2ccccc12)C(=O)N[C@@H](C(=O)N[C@@H](Cc1c[nH]c2ccccc12)C(=O)N[C@H](CC(C)C)C(=O)N[C@@H](Cc1c[nH]c2ccccc12)C(=O)N[C@@H](C(=O)N[C@@H](Cc1c[nH]c2ccccc12)C(=O)NCCO)C(C)C)[C@H](C)O)C(C)C)C(C)C)C(C)C [compound 5657] (For-VGA[dL]A[dV]V[dV]W[dT]W[dL]W[dV]W-NHCH2CH2OH) | 1.09 | - | 81.3
CC(C)C[C@@H](NC(=O)[C@H](C)NC(=O)CNC(=O)[C@@H](NC=O)C(C)C)C(=O)N[C@@H](C)C(=O)N[C@H](CC(C)C)C(=O)N[C@H](C(=O)N[C@H](CC(C)C)C(=O)N[C@@H](Cc1c[nH]c2ccccc12)C(=O)N[C@@H](C(=O)N[C@@H](Cc1c[nH]c2ccccc12)C(=O)N[C@@H](C(=O)N[C@@H](Cc1c[nH]c2ccccc12)C(=O)N[C@H](CC(C)C)C(=O)N[C@@H](Cc1c[nH]c2ccccc12)C(=O)NCCO)[C@H](C)O)C(C)C)C(C)C [compound 5736] (For-VGA[dL]A[dL]V[dL]W[dV]W[dT]W[dL]W-NHCH2CH2OH) | 1.11 | - | 95.5
CC(C)C[C@@H](NC(=O)[C@H](Cc1c[nH]c2ccccc12)NC(=O)[C@H](NC(=O)[C@@H](NC(=O)[C@H](NC(=O)[C@H](C)NC(=O)[C@H](NC(=O)[C@H](C)NC(=O)CNC(=O)[C@@H](NC=O)C(C)C)C(C)C)C(C)C)C(C)C)C(C)C)C(=O)N[C@@H](Cc1c[nH]c2ccccc12)C(=O)N[C@H](CC(C)C)C(=O)N[C@@H](Cc1c[nH]c2ccccc12)C(=O)N[C@@H](C(=O)N[C@@H](Cc1c[nH]c2ccccc12)C(=O)NCCO)C(C)C [compound 5742] (For-VGA[dV]A[dV]V[dV]W[dL]W[dL]W[dV]W-NHCH2CH2OH) | 1.16 | ++ | 11.1
CC(C)C[C@@H](NC(=O)[C@H](C)NC(=O)CNC(=O)[C@@H](NC=O)C(C)C)C(=O)N[C@@H](C)C(=O)N[C@@H](C(=O)N[C@H](C(=O)N[C@@H](C(=O)N[C@@H](Cc1c[nH]c2ccccc12)C(=O)N[C@@H](C(=O)N[C@@H](Cc1c[nH]c2ccccc12)C(=O)N[C@H](CC(C)C)C(=O)N[C@@H](Cc1c[nH]c2ccccc12)C(=O)N[C@@H](C(=O)N[C@@H](Cc1c[nH]c2ccccc12)C(=O)NCCO)C(C)C)[C@H](C)O)[C@H](C)O)C(C)C)C(C)C [compound 5747] (For-VGA[dL]A[dV]V[dT]W[dT]W[dL]W[dV]W-NHCH2CH2OH) | 1.09 | - | 100
CNC(=O)C[C@@H](NC(=O)[C@H](Cc1c[nH]c2ccccc12)NC(=O)[C@H](NC(=O)[C@@H](NC(=O)[C@@H](CC(C)C)NC(=O)[C@H](C)NC(=O)[C@H](NC(=O)[C@H](C)NC(=O)CNC(=O)[C@@H](NC=O)C(C)C)C(C)C)C(C)C)C(C)C)C(=O)N[C@@H](Cc1c[nH]c2ccccc12)C(=O)N[C@H](CC(C)C)C(=O)N[C@@H](Cc1c[nH]c2ccccc12)C(=O)N[C@H](CC(C)C)C(=O)N[C@@H](Cc1c[nH]c2ccccc12)C(=O)NCCO [compound 5838] (For-VGA[dV]A[dL]V[dV]W[dD](NHMe)W[dL]W[dL]W-NHCH2CH2OH) | 1.12 | - | 100
CNC(=O)C[C@@H](NC(=O)[C@@H](NC(=O)[C@@H](CC(C)C)NC(=O)[C@H](C)NC(=O)[C@H](NC(=O)[C@H](C)NC(=O)CNC(=O)[C@@H](NC=O)C(C)C)C(C)C)C(C)C)C(=O)N[C@@H](Cc1c[nH]c2ccccc12)C(=O)N[C@@H](C(=O)N[C@@H](Cc1c[nH]c2ccccc12)C(=O)N[C@@H](C(=O)N[C@@H](Cc1c[nH]c2ccccc12)C(=O)N[C@H](CC(C)C)C(=O)N[C@@H](Cc1c[nH]c2ccccc12)C(=O)NCCO)C(C)C)C(C)C [compound 5991] (For-VGA[dV]A[dL]V[dD](NHMe)W[dV]W[dV]W[dL]W-NHCH2CH2OH) | 1.00 | - | 94.7
